The record followed here is patent US20230167118A1, “DEGRADATION OF BRUTON'S TYROSINE KINASE (BTK) BY CONJUGATION OF BTK INIDBITORS WITH E3 LIGASE LIGAND AND METHODS OF USE” (BEIGENE, LTD., priority 2020, published 2023).

In assay [1] the target is T1, BTK (Homo sapiens, UniProt Q06187).
T1 construct: High control=Cell group with added DMSO and without compound, indicating microplate readings without BTK degradation; endogenous in cells; host or cells: TMD-8 cells
Kind of assay: Cell Degradation: BTK degradation in TMD-8 cells, HTRF assay. To be noted: 6 h treatment, IC50 (DC50) of BTK degradation. It is filed as cell-based. How it is done: TMD-8 cells are treated with compounds in 0.2% DMSO, dilution is done according to the following protocol: (1) make 500× stock solution in DMSO from 1 mM by 6-fold dilution, total 8 doses were included; (2) make 2× solution in cell culture medium by transferring 0.5 μl 500× stock solution into 125 μl medium; (3) 15 μl of 2× solution is added to cells and incubate for 6 h.
After 6 h treatment, add […] 4×lysis buffer to each well; seal the plate and incubate 30 min at room temperature on a plate shaker; Once the cells are lysed, 16 μL of cell lysate are transferred to a PE 384-well HTRF detection plate; 4 μL of pre-mixed HTRF antibodies are added to each well; Cover the plate with a plate sealer, spin 1000 rpm for 1 min, Incubate overnight at room temperature; Read on BMG PheraStar with HTRF protocol (337 nm-665 nm-620 nm).
The inhibition (degradation) percentage of the compound was calculated by the following equation: Inhibition percentage of Compound=100-100× (Signal-low control)/(High control-low control), wherein signal=each test compound group
Dmax is the maximum percentage of inhibition (degradation).
The IC50 (DC50) value of a compound can be obtained by fitting the following equation
Y=Bottom+(TOP-Bottom)/(1+((IC50/X)^hillslope))
(§1) Wherein, X and Y are known values, and IC50, Hillslope, Top and Bottom are the parameters obtained by fitting with software. Y is the inhibition percentage (calculated from the equation), X is the concentration of the compound; IC50 is the concentration of the compound when the 50% inhibition is reached. The smaller the IC50 value is, the stronger the inhibitory ability of the compound is. Vice versa, the higher the IC50 value is, the weaker the ability the inhibitory ability of the compound is; Hillslope represents the slope of the fitted curve, generally around 1 *; Bottom represents the minimum value of the curve obtained by data fitting, which is generally 0%±20%; Top represents the maximum value of the curve obtained by data fitting, which is generally 100%±20%. The experimental data were fitted by calculating and analyzing with Dotmatics data analysis software.
(Time-resolved FRET reads energy transfer from a long-lived donor to a nearby acceptor.)

The subject of assay [2] is HEK-293 cells. The experiment in a line: HEK-293 Cytotoxicity Assay (CellTiter-Glo). It is filed as cell-based. To be noted: Homo sapiens, HEK293, 72 h incubation, CellTiter-Glo luminescence. How it is done: HEK-293 Cytotoxicity Assay
HEK-293 cells are treated with compounds diluted in 0.2% DMSO, dilution is done according to the following protocol: (1) make 500× stock solution in DMSO from 5 mM by 4-fold dilution, total 8 doses were included; (2) make 2× solution in cell culture medium by transferring 0.5 ul 500× stock solution into 125 ul medium; (3) 50 ul of 2× solution is added to cells and incubate for 72 h.
Add 25 μl of the CellTiter-Glo®Reagent [I (Promega)—Cat No. G7572] to each well in the 96-well plate. Mix contents for 2 minutes on an orbital shaker to induce cell lysis. Allow the plate to incubate at room temperature for 10 minutes to stabilize luminescent signal. Record luminescence on BMG PheraStar with luminescence protocol.
as §1, with “The IC50 value of a compound can be obtained by fitting the following equation. Y=Bottom+(TOP−Bottom)/(1+((IC50/X)^hillslope)) Wherein,” for “Wherein,”, “1*;” for “1 *;”
On the technique in general: In ATP-based viability assays light output follows the ATP content of the culture.

SMILES strings stand for the structures. A value given as a limit tells only on which side of the number the result lay.

T1 sequence (Q06187 whole entry): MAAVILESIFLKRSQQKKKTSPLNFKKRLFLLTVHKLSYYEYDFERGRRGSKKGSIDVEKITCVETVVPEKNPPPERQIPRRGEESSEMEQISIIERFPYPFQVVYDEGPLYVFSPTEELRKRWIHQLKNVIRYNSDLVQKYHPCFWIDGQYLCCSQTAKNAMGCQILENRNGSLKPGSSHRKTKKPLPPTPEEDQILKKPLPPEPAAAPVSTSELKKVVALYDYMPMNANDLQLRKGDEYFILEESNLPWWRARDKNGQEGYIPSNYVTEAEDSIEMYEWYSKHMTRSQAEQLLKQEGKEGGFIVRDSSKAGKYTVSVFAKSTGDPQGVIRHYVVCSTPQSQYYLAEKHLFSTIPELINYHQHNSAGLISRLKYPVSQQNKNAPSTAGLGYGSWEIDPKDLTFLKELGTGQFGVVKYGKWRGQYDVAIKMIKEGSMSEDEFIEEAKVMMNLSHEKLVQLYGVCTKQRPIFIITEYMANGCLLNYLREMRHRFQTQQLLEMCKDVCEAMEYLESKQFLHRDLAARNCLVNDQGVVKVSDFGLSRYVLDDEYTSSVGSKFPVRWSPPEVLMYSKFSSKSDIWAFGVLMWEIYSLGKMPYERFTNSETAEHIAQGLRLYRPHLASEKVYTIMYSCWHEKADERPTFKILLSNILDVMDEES

As to `Cc1cc(-c2ncnc3[nH]c(-c4ccc(N5CCN(CC6CCN(c7ccc(N8CCC(=O)NC8=O)cc7)CC6)CC5)cc4)nc23)ccc1[C@@H](C)NC(=O)c1nc(C(C)(C)C)no1` [Example 25, (R)-3-(tert-butyl)-N-(1-(4-(8-(4-(4-((1-(4-(2,4-dioxotetrahydropyrimidin-1(2H)-yl)phenyl)piperidin-4-yl)methyl)piperazin-1-yl)phenyl)-9H-purin-6-yl)-2-methylphenyl)ethyl)-1,2,4-oxadiazole-5-carboxamide], the 50% degradation concentration (DC50) (usually the concentration giving 50% degradation) in assay [1] was determined as 1.4 nM. For the same compound, the IC50 (usually the midpoint of a concentration-inhibition curve) in assay [2] is over 10000 nM.
On the same counts, the results for `Cc1cc(-c2ncnc3[nH]c(-c4ccc(N5CCN(CCC6CCN(c7ccc(N8CCC(=O)NC8=O)c(Cl)c7)CC6)CC5)nc4)cc23)ccc1[C@@H](C)NC(=O)c1nc(C(C)(C)C)no1` [Example 26, (R)-3-(tert-butyl)-N-(1-(4-(6-(6-(4-(2-(1-(3-chloro-4-(2,4-dioxotetrahydropyrimidin-1(2H)-yl)phenyl)piperidin-4-yl)ethyl)piperazin-1-yl)pyridin-3-yl)-7H-pyrrolo[2,3-d]pyrimidin-4-yl)-2-methylphenyl)ethyl)-1,2,4-oxadiazole-5-carboxamide] are 4.7 nM and over 10000 nM.
On the same counts, the results for `COc1ccc(C(=O)N2CCC(CN3CCC(Oc4ccc(-c5cc6c(-c7ccc(CNC(=O)c8nc(C(C)(C)C)no8)c(C)c7)ncnc6[nH]5)cc4)CC3)CC2)cc1N1CCC(=O)NC1=O` [Example 27, 3-(tert-butyl)-N-(4-(6-(4-((1-((1-(3-(2,4-dioxotetrahydropyrimidin-1(2H)-yl)-4-methoxybenzoyl)piperidin-4-yl)methyl)piperidin-4-yl)oxy)phenyl)-7H-pyrrolo[2,3-d]pyrimidin-4-yl)-2-methylbenzyl)-1,2,4-oxadiazole-5-carboxamide] are 1.9 nM and over 10000 nM.
`Cc1c(NC(=O)c2ccc(C(C)(C)O)cc2F)cc(F)cc1-c1ncnc2[nH]c(-c3ccc(C4CCN(CC5CCN(c6ccc(N7CCC(=O)NC7=O)cc6)CC5)CC4)cc3)cc12` [Example 28, N-(3-(6-(4-(1-((1-(4-(2,4-dioxotetrahydropyrimidin-1(2H)-yl)phenyl)piperidin-4-yl)methyl)piperidin-4-yl)phenyl)-7H-pyrrolo[2,3-d]pyrimidin-4-yl)-5-fluoro-2-methylphenyl)-2-fluoro-4-(2-hydroxypropan-2-yl)benzamide] showed a 50% degradation concentration (DC50) in assay [1] of 1.5 nM. The compound also yielded a 50% inhibitory concentration (IC50) in assay [2] of 4240 nM.
`C=C(C)c1ccc(C(=O)Nc2cc(F)cc(-c3ncnc4[nH]c(-c5ccc(C6CCN(CC7CCN(c8ccc(N9CCC(=O)NC9=O)cc8)CC7)CC6)cc5)cc34)c2C)c(F)c1` [Example 29, N-(3-(6-(4-(1-((1-(4-(2,4-dioxotetrahydropyrimidin-1(2H)-yl)phenyl)piperidin-4-yl)methyl)piperidin-4-yl)phenyl)-7H-pyrrolo[2,3-d]pyrimidin-4-yl)-5-fluoro-2-methylphenyl)-2-fluoro-4-(prop-1-en-2-yl)benzamide]: in assay [1], the DC50 turned out to be 10.2 nM. Also, the half-maximal inhibitory concentration (IC50) in assay [2] was over 10000 nM.
With `Cc1cc(-c2ncnc3[nH]c(-c4ccc(N5CCN(CC6CCN(c7ccc(N8CCC(=O)NC8=O)cc7)CC6)CC5)cc4)cc23)ccc1CNC(=O)c1noc(C(C)(C)C)n1` [Example 30, 5-(tert-butyl)-N-(4-(6-(4-(4-((1-(4-(2,4-dioxotetrahydropyrimidin-1(2H)-yl)phenyl)piperidin-4-yl)methyl)piperazin-1-yl)phenyl)-7H-pyrrolo[2,3-d]pyrimidin-4-yl)-2-methylbenzyl)-1,2,4-oxadiazole-3-carboxamide], in assay [1], it took 1.7 nM to reach half-maximal degradation (DC50). The IC50 in assay [2] was over 10000 nM.
For `C[C@@H](NC(=O)c1noc(C(C)(C)C)n1)c1ccc(-c2ncnc3[nH]c(-c4ccc(N5CCN(CC6CCN(c7ccc(N8CCC(=O)NC8=O)cc7)CC6)CC5)cc4)cc23)cc1F` [Example 31, (R)-5-(tert-butyl)-N-(1-(4-(6-(4-(4-((1-(4-(2,4-dioxotetrahydropyrimidin-1(2H)-yl)phenyl)piperidin-4-yl)methyl)piperazin-1-yl)phenyl)-7H-pyrrolo[2,3-d]pyrimidin-4-yl)-2-fluorophenyl)ethyl)-1,2,4-oxadiazole-3-carboxamide], in that order: 1.5 nM and over 10000 nM.
On to `CC(C)(C)c1noc(C(=O)NCc2ccc(-c3ncnc4[nH]c(-c5ccc(N6CCN(CC7CCN(c8ccc(N9CCC(=O)NC9=O)cc8)CC7)CC6)cc5)cc34)cc2F)n1` [Example 32, 3-(tert-butyl)-N-(4-(6-(4-(4-((1-(4-(2,4-dioxotetrahydropyrimidin-1(2H)-yl)phenyl)piperidin-4-yl)methyl)piperazin-1-yl)phenyl)-7H-pyrrolo[2,3-d]pyrimidin-4-yl)-2-fluorobenzyl)-1,2,4-oxadiazole-5-carboxamide], for which the DC50 in assay [1] was found to be 1.7 nM. In assay [2], this compound gave an IC50 of over 10000 nM.
With `C[C@@H](NC(=O)c1nc(C(C)(C)C)no1)c1ccc(-c2ncnc3[nH]c(-c4ccc(N5CCN(CC6CCN(c7ccc(N8CCC(=O)NC8=O)cc7)CC6)CC5)nc4)cc23)cc1F` [Example 33, (R)-3-(tert-butyl)-N-(1-(4-(6-(6-(4-((1-(4-(2,4-dioxotetrahydropyrimidin-1(2H)-yl)phenyl)piperidin-4-yl)methyl)piperazin-1-yl)pyridin-3-yl)-7H-pyrrolo[2,3-d]pyrimidin-4-yl)-2-fluorophenyl)ethyl)-1,2,4-oxadiazole-5-carboxamide], in assay [1], the DC50 is 1.7 nM. In assay [2], this compound had a concentration for half-maximal inhibition (IC50) of over 10000 nM.
For `C[C@@H](NC(=O)c1noc(C(C)(C)C)n1)c1ccc(-c2ncnc3[nH]c(-c4ccc(N5CCN(CC6CCN(c7ccc(N8CCC(=O)NC8=O)cc7)CC6)CC5)nc4)cc23)cc1F` [Example 34, (R)-5-(tert-butyl)-N-(1-(4-(6-(6-(4-((1-(4-(2,4-dioxotetrahydropyrimidin-1(2H)-yl)phenyl)piperidin-4-yl)methyl)piperazin-1-yl)pyridin-3-yl)-7H-pyrrolo[2,3-d]pyrimidin-4-yl)-2-fluorophenyl)ethyl)-1,2,4-oxadiazole-3-carboxamide], in assay [1], the DC50 came to 1.2 nM. For the same compound, the half-maximal inhibitory concentration (IC50) in assay [2] is over 10000 nM.
On the same counts, the results for `Cc1cc(-c2ncnc3[nH]c(-c4ccc(N5CCN(CC6CCN(c7ccc(N8CCC(=O)NC8=O)cc7)CC6)CC5)cc4)cc23)ccc1CNC(=O)c1cnn(C(C)(C)C)c1` [Example 35, 1-(tert-butyl)-N-(4-(6-(4-(4-((1-(4-(2,4-dioxotetrahydropyrimidin-1(2H)-yl)phenyl)piperidin-4-yl)methyl)piperazin-1-yl)phenyl)-7H-pyrrolo[2,3-d]pyrimidin-4-yl)-2-methylbenzyl)-1H-pyrazole-4-carboxamide] are 0.63 nM and over 10000 nM.
`Cc1cc(CNC(=O)c2ccc(C(C)(C)O)cc2F)c(F)cc1-c1ncnc2[nH]c(-c3ccc(C4CCN(CC5CCN(c6ccc(N7CCC(=O)NC7=O)cc6)CC5)CC4)cc3)cc12` [Example 36, N-(4-(6-(4-(1-((1-(4-(2,4-dioxotetrahydropyrimidin-1(2H)-yl)phenyl)piperidin-4-yl)methyl)piperidin-4-yl)phenyl)-7H-pyrrolo[2,3-d]pyrimidin-4-yl)-2-fluoro-5-methylbenzyl)-2-fluoro-4-(2-hydroxypropan-2-yl)benzamide]: in assay [1], the DC50 stood at 1.5 nM. In assay [2], this compound registered a 50% inhibitory concentration (IC50) of over 10000 nM.
